Test [1] has as its target Beta-2 adrenergic receptor (Homo sapiens, UniProt P07550).
Test [2] deals with Vasopressin V2 receptor (Homo sapiens, UniProt P30518).
Test [3] has as its target T1, Muscarinic acetylcholine receptor M2 (Homo sapiens, UniProt P08172).
T1 sequence (P08172 whole entry): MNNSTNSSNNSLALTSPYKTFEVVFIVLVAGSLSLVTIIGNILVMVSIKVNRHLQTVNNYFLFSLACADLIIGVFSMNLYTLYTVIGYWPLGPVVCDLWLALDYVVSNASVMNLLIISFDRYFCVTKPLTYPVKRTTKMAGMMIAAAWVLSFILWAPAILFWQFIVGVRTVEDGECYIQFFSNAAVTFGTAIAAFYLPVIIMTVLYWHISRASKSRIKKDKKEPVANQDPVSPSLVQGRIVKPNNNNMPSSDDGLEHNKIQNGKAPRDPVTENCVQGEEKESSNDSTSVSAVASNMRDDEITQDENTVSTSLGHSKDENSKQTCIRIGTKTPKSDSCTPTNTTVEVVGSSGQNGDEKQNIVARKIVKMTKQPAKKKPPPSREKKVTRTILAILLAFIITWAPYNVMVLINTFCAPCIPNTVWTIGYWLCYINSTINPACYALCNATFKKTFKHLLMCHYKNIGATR
It counts as functional, cell-based.

The target in test [4] is Cannabinoid receptor 1 (Homo sapiens, UniProt P21554).
Cannabinoid receptor 1, sequence (P21554 whole entry): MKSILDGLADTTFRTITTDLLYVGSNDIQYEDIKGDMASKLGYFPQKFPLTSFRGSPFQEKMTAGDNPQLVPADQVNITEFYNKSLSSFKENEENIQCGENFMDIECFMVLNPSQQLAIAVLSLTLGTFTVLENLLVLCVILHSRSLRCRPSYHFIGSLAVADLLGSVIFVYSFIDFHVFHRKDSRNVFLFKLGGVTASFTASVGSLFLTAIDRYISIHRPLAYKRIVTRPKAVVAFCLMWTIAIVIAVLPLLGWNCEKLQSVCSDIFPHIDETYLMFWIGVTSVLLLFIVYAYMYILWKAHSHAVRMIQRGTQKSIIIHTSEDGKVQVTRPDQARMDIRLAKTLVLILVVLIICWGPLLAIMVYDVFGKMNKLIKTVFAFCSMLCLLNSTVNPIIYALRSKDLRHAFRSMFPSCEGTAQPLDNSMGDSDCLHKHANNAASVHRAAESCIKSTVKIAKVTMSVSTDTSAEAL
Test [5] concerns the target Gamma-aminobutyric acid receptor subunit alpha-1 (Rattus norvegicus, UniProt P62813).
For test [6], the target named is T2, 5-hydroxytryptamine receptor 1A (Homo sapiens, UniProt P08908).
T2 sequence (P08908 whole entry): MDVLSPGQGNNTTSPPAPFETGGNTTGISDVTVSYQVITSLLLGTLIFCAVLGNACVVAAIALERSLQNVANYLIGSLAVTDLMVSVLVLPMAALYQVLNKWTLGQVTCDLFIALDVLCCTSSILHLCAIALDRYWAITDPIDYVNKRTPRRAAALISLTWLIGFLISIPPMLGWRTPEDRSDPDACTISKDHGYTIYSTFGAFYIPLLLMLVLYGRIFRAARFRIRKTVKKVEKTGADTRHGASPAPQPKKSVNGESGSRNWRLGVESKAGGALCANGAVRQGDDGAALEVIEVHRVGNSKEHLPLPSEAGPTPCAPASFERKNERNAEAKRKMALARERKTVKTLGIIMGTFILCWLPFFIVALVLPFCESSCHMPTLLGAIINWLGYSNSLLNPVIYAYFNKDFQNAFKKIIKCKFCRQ
The format is functional, cell-based.

The target in test [7] is T3, Progesterone receptor (Homo sapiens, UniProt P06401).
T3 sequence (P06401 whole entry): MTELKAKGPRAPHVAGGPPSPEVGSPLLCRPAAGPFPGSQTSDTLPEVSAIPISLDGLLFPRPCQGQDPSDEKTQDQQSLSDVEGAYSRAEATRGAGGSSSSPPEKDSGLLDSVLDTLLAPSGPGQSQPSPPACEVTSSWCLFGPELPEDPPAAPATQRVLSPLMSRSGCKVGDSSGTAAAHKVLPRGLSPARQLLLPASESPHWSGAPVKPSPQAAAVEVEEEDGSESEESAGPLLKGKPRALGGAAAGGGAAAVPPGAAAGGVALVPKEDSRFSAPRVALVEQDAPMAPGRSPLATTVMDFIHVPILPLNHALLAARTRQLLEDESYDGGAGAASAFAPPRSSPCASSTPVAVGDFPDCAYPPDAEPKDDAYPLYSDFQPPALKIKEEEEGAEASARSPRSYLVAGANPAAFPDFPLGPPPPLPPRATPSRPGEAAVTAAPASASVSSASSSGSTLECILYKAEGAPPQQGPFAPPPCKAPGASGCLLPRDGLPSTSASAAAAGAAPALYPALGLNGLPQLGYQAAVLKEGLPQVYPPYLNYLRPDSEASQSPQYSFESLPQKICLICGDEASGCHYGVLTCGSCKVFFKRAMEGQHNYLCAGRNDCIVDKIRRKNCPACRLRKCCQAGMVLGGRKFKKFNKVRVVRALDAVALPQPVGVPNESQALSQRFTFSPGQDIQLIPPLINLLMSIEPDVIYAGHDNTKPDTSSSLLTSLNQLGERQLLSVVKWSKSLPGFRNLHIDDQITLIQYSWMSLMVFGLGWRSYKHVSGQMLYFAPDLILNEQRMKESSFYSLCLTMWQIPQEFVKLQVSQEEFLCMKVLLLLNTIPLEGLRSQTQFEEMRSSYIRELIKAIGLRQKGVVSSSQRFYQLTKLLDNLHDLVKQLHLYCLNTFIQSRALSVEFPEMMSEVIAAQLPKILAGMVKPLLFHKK
It counts as functional.

The target in test [8] is T3, Progesterone receptor. It counts as functional. This is another data set of the same source.
Test [9] has as its target Histamine H3 receptor (Homo sapiens, UniProt Q9Y5N1).
Test [10] concerns the target T4, Alpha-1A adrenergic receptor (Homo sapiens, UniProt P35348).
T4 sequence (P35348 whole entry): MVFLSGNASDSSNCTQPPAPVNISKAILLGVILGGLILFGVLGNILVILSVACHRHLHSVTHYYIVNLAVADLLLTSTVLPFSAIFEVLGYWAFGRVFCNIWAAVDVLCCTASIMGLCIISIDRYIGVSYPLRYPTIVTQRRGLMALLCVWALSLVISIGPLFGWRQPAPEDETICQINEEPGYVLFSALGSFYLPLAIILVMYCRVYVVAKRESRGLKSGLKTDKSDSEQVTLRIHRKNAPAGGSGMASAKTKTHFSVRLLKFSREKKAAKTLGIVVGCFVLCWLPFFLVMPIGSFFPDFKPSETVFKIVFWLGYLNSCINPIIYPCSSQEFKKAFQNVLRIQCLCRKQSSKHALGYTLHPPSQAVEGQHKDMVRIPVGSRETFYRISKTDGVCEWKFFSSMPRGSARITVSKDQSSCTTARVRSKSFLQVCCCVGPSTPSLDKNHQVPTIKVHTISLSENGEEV
The format is functional, cell-based.

Test [11] addresses T1, Muscarinic acetylcholine receptor M2.
Test [12] addresses Mu-type opioid receptor (Homo sapiens, UniProt P35372).
Test [13] deals with Prostaglandin G/H synthase 1 (Homo sapiens, UniProt P23219). It counts as functional.
Prostaglandin G/H synthase 1, sequence (P23219 whole entry): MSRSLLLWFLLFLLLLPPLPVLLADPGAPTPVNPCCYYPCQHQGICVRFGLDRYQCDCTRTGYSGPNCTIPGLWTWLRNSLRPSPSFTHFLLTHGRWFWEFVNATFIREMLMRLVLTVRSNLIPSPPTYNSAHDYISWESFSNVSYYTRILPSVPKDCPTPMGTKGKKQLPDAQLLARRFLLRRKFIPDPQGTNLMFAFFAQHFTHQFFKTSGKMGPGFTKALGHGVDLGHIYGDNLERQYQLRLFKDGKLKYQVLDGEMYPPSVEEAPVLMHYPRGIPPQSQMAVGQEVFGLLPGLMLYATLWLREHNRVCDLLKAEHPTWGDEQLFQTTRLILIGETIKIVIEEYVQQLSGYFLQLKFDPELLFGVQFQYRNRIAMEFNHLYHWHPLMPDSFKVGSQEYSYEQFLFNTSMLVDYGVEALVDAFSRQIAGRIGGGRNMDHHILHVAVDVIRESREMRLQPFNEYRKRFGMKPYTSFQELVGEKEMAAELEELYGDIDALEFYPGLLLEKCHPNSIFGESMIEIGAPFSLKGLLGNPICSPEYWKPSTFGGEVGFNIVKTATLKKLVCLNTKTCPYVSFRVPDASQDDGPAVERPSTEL

Values joined by “and” are separate entries in the source; they are usually repeats but may differ in a detail not shown here. Identical values can stand only once.
Also: assay procedure not described here.

Beta-2 adrenergic receptor, sequence (P07550 whole entry): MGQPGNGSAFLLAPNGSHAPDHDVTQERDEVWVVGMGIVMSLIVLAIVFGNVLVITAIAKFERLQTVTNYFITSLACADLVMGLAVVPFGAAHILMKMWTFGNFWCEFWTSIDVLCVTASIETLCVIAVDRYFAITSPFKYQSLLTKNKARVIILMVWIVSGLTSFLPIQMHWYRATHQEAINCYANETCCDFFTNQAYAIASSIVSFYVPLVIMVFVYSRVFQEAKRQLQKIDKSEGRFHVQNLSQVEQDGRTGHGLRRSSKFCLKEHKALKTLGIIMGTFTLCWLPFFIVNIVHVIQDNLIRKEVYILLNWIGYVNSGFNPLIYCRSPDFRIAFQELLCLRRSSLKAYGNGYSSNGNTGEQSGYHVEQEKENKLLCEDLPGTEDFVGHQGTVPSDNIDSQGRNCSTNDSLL
Gamma-aminobutyric acid receptor subunit alpha-1, sequence (P62813 whole entry): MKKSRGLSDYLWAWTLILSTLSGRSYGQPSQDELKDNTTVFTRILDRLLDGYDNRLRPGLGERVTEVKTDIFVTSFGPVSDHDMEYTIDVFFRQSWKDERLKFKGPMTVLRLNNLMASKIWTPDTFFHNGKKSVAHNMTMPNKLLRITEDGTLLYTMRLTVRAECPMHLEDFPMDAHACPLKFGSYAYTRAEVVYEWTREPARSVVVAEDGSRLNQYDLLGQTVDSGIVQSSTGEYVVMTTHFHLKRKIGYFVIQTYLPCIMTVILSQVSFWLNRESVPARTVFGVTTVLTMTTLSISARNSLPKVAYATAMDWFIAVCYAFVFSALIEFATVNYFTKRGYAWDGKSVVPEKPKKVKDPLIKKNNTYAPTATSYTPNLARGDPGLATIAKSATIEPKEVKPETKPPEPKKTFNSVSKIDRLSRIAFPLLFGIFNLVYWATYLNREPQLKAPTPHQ
Histamine H3 receptor, sequence (Q9Y5N1 whole entry): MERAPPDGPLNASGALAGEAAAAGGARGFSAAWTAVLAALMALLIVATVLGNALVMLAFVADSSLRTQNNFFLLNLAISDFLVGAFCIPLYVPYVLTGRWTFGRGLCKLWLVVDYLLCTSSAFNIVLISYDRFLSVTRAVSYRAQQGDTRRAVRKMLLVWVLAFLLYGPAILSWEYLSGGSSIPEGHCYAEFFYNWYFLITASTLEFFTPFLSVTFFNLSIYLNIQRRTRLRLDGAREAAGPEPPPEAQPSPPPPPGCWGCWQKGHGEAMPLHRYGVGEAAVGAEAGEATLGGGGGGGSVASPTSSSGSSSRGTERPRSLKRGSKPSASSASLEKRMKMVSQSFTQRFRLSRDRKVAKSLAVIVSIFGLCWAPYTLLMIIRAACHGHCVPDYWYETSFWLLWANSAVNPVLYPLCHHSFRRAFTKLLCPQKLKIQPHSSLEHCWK
Vasopressin V2 receptor, sequence (P30518 whole entry): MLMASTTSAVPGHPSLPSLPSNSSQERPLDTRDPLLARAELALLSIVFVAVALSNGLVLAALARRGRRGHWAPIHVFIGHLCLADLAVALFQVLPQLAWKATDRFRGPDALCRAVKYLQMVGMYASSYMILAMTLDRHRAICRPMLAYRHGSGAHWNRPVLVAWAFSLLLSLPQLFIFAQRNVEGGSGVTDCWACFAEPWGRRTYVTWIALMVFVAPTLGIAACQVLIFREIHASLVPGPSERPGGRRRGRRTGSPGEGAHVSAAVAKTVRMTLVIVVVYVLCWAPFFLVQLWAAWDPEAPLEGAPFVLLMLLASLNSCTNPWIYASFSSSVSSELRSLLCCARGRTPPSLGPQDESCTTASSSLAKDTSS
Mu-type opioid receptor, sequence (P35372 whole entry): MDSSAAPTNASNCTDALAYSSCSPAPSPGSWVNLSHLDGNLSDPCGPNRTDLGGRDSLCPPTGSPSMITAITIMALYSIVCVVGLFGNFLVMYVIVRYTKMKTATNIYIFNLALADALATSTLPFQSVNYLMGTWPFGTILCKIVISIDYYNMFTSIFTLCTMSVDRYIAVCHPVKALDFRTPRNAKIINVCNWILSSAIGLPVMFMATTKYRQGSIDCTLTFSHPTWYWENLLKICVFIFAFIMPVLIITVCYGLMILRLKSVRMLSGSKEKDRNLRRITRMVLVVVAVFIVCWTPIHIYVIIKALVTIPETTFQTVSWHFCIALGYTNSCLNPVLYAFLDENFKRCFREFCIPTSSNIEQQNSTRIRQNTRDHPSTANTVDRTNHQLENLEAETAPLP

As usually defined, the AC50 is the midpoint of the concentration-response curve, whichever way the signal moves. Low readings indicate activity at low concentration, high ones activity only at high concentration. Consider `CO/N=C(\C(=O)N[C@@H]1C(=O)N2C(C(=O)[O-])=C(C[N+]3(C)CCCC3)CS[C@H]12)c1csc(N)n1`, for which the AC50 was greater than 30 µM in test [1]; greater than 30 µM in [2]; greater than 300 µM in [3]; greater than 30 µM in test [4]; greater than 30 µM in test [5]; greater than 300 µM in test [6]. Also, the AC50 in [7] is greater than 300 µM; in test [8], > 30 µM and 140 µM; in test [9], > 30 µM and 97 µM.

Take `O=C(CCCCCCC(=O)Nc1ccccc1)NO` [VORINOSTAT]: the AC50 was greater than 10 µM in test [1]; greater than 30 µM in [2]; greater than 30 µM in [3]; greater than 10 µM in test [4]; greater than 10 µM in [5]; greater than 30 µM in test [6]. The AC50 in test [7], in test [8] and in test [9] was greater than 30 µM each time.

`C#C[C@]1(O)CC[C@H]2[C@@H]3CCc4cc(O)ccc4[C@H]3CC[C@@]21C` [ETHINYL ESTRADIOL]: the AC50 in test [10] was greater than 10 µM; in test [1] it was greater than 10 µM; in test [2], greater than 30 µM; in test [3], greater than 10 µM; in test [11], greater than 30 µM; in test [4], greater than 10 µM. Moreover, the concentration at half-maximal activity (AC50) was greater than 10 µM in [5], 20.6 µM in test [12], greater than 30 µM in test [13] and greater than 10 µM in test [9].

For the compound `CN(C)CCCN1c2ccccc2CCc2ccc(Cl)cc21` [CLOMIPRAMINE], the AC50 is 0.0154 µM in test [10]; greater than 10 µM in test [3]; 0.451 µM in test [11]; greater than 10 µM in test [4]; greater than 10 µM in test [5]; 1.9 µM in test [12]. Also, the AC50 in [9] is 3.8 µM.

As for `CC(C(=O)O)c1ccc(C(=O)c2cccs2)cc1` (stereo not drawn) [SUPROFEN], the AC50 in test [1], in [2], in [3], in [4], in [5] and in test [6] was greater than 10 µM each time. Further, the AC50 in test [7], in [8] and in [9] was greater than 10 µM in each case.

For the compound `COC(=O)N[C@H](C(=O)N[C@@H](Cc1ccccc1)[C@@H](O)CN(Cc1ccc(-c2ccccn2)cc1)NC(=O)[C@@H](NC(=O)OC)C(C)(C)C)C(C)(C)C` [ATAZANAVIR], the AC50 in test [1] is greater than 10 µM; in test [2], greater than 30 µM; in test [3], greater than 10 µM; in test [4] it was greater than 10 µM; in test [5], greater than 10 µM; in [6] it was greater than 10 µM. Besides, the figures for the AC50 in [7], in test [8] and in [9] were greater than 30 µM, greater than 30 µM and greater than 10 µM, respectively.

Turning to `CN1C(=O)CC(C)(c2ccccc2)C1=O` (stereo not drawn) [METHSUXIMIDE], the AC50 in [1], in [2], in [3], in test [4], in test [5] and in test [6] was greater than 10 µM each time. Besides, the concentration at half-maximal activity (AC50) in test [7] and in test [8] was greater than 10 µM in each case.

On to `Cc1ccc(C(=O)c2cc(O)c(O)c([N+](=O)[O-])c2)cc1` [TOLCAPONE], for which the half-maximal activity concentration (AC50) in test [1] was greater than 10 µM; in test [2], greater than 10 µM; in test [3], greater than 10 µM; in test [4], greater than 10 µM; in [5], greater than 10 µM; in [6], 5.6 µM. Moreover, the AC50 in [7] was greater than 30 µM; in test [8], 1.09 µM; in test [9], greater than 10 µM.

On to `C[C@@H]1O[C@@H]1P(=O)(O)O` [FOSFOMYCIN], for which the AC50 in test [1], in test [2], in test [3], in test [4], in [5] and in test [6] was greater than 10 µM each time. The AC50 in test [7] and in [8] was greater than 30 µM each time.

For the compound `NC[C@H]1CC[C@H](C(=O)O)CC1` [TRANEXAMIC ACID], the AC50 in test [1], in test [2], in test [3], in test [4], in test [5] and in [6] was greater than 10 µM each time. Besides, the half-maximal activity concentration (AC50) in test [7] and in test [8] was greater than 10 µM in each case.

Turning to `O=C(O)c1cc(-c2ccc(F)cc2F)ccc1O` [DIFLUNISAL], the AC50 in test [1], in test [2], in [3], in [4], in test [5] and in test [6] was greater than 10 µM each time. Further, the half-maximal activity concentration (AC50) in [7] and in test [8] was greater than 10 µM throughout.

For the compound `CC(C)(C(=O)c1cccnc1)c1cccnc1` [METYRAPONE], the half-maximal activity concentration (AC50) in test [1], in test [2], in [3], in test [4], in [5] and in test [6] was greater than 10 µM each time. In addition, the AC50 in [7] and in test [8] was greater than 10 µM in each case.

Consider `NC[C@H]1O[C@H](O[C@H]2[C@H](O)[C@@H](O[C@H]3O[C@H](CO)[C@@H](O)[C@H](N)[C@H]3O)[C@H](N)C[C@@H]2N)[C@H](O)[C@@H](O)[C@@H]1O` [KANAMYCIN], for which the AC50 in test [1], in test [2], in test [3], in test [4], in test [5] and in test [6] was greater than 10 µM in each case. In addition, the AC50 in test [7] and in test [8] was greater than 10 µM in each case.

Regarding `CC[C@H](C)C(=O)O[C@H]1C[C@H](O)C=C2C=C[C@H](C)[C@H](CC[C@@H](O)C[C@@H](O)CC(=O)O)[C@H]21` [PRAVASTATIN], the AC50 in [1] is greater than 10 µM; in [3], greater than 30 µM; in [4] it was greater than 10 µM; in test [5], greater than 10 µM; in [6] it was greater than 30 µM; in test [7] it was greater than 30 µM. In addition, the AC50 in test [8] and in test [9] was greater than 30 µM in each case.

Values taken from ChEMBL document CHEMBL5291721, “A preclinical secondary pharmacology resource illuminates target-adverse drug reaction associations of marketed drugs” (Nat Commun, 2023).
